Test results published in article PMC4000213 (PLoS ONE, 2014).
Where “and” joins values, the source holds several entries; their conditions need not be identical. Equal entries are not always repeated. Entries after “also recorded” stand apart in the source; their conditions may differ. Where two headings read alike, the source gives them in different places.

Assays:
LcA (BoNT/A light chain) [1] = target: T1, LcA (BoNT/A light chain) (Clostridium botulinum, UniProt P0DPI0); format: biochemical
LcA (BoNT/A light chain) [2] = target: T1, LcA (BoNT/A light chain); format: biochemical; remark: listed apart in the source
LcA (BoNT/A light chain) [3] = target: T1, LcA (BoNT/A light chain); settings: cited from earlier work
BoNT/A / LcA = settings: cited from earlier work
LcA (BoNT/A light chain) [4] = target: T1, LcA (BoNT/A light chain); format: biochemical; settings: pH 7.4
LcA (BoNT/A light chain) [5] = target: T1, LcA (BoNT/A light chain); settings: cited from earlier work; remark: listed apart in the source
LcA (BoNT/A light chain) [6] = target: T1, LcA (BoNT/A light chain)
LcA (BoNT/A light chain) [7] = target: T1, LcA (BoNT/A light chain); remark: listed apart in the source
LcA (BoNT/A light chain) [8] = target: T1, LcA (BoNT/A light chain); remark: listed apart in the source

T1 sequence (P0DPI0 1-448 limits assumed): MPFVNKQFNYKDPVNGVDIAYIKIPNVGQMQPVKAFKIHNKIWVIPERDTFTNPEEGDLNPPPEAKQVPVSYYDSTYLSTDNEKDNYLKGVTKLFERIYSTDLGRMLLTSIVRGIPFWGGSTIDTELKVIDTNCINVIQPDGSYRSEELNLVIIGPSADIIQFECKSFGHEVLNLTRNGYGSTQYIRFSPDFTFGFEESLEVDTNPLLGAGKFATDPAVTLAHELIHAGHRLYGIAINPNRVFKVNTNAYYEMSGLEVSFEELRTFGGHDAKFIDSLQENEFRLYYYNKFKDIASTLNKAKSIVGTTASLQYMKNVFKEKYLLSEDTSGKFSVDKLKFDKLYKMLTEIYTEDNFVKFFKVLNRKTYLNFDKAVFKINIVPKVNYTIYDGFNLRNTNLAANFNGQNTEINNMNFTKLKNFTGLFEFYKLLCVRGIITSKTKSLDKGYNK

O[C@@H](CS)[C@@H](O)CS (racemic) [DTT, dithiothreitol]
concentration for optimal LcA activity (LcA (BoNT/A light chain) [1]): 4 mM
effect of DTT on LcA activity, SNAP25 substrate (LcA (BoNT/A light chain) [1]; pH 7.4): slight stimulation of LcA activity
behavior of the new LcA preparation on adding BSA, ZnCl2 and DTT (LcA (BoNT/A light chain) [2]): essentially same behavior
effect of adding DTT and ZnCl2 to the 17-mer substrate reactions (LcA (BoNT/A light chain) [2]): results identical to those without them
effect on kinetic constants or specific activity of LcA with the 17-mer substrate (LcA (BoNT/A light chain) [3]): no effect
effect of DTT on solubilized LcA activity (BoNT/A / LcA): inhibited
effect on the LcA reaction depending on concentration (BoNT/A / LcA): both stimulating and inhibitory

O=C(O)CN(CCN(CC(=O)O)CC(=O)O)CC(=O)O [EDTA, ethylenediaminetetraacetate]
effect on BoNT / LcA activity (BoNT/A / LcA): inhibitor of LcA activity
effect on BoNT activities (BoNT/A / LcA): inhibits BoNT activities
effect on BoNT/A activity (BoNT/A / LcA): inhibitory

[Cl-].[Na+] [NaCl, Sodium chloride]
effect of higher NaCl concentrations on LcA activity, full length SNAP25 substrate (LcA (BoNT/A light chain) [1]): decrease in LcA activity
effect of NaCl on LcA activity, full length SNAP25 substrate (LcA (BoNT/A light chain) [1]; pH 7.4): stimulating effect; also recorded: more than sevenfold
effect of NaCl on LcA activity, 66-mer substrate (LcA (BoNT/A light chain) [4]): stimulating effect; also recorded: The same was also observed when the 66-mer peptide was used as a substrate
effect of NaCl on LcA activity, 17-mer substrate (LcA (BoNT/A light chain) [2]; pH 7.4): inhibitory effect
effect on BoNT activities (BoNT/A / LcA): inhibits BoNT activities
effect on BoNT/A activity (BoNT/A / LcA): inhibitory

Cl.NC(CO)(CO)CO [tris.HCl]
effect on BoNT / LcA activity (BoNT/A / LcA): inhibitory
effect on BoNT/A activity (BoNT/A / LcA): inhibitory

[Zn] [zinc]
effect on the LcA reaction depending on concentration (BoNT/A / LcA): both stimulating and inhibitory

(FITC)-ATDRIDQANQRATK(DABCYL)nL-amide
Km (LcA (BoNT/A light chain) [5]): 19 µM

SNKTRIDEANQ-RATKML [17-mer]
Km (LcA (BoNT/A light chain) [6]): 1500 µM
Vmax (LcA (BoNT/A light chain) [6]): 33.6 mM/min/mg
kcat (LcA (BoNT/A light chain) [6]): 28 s⁻¹
Km (LcA (BoNT/A light chain) [6]; pH 7.4): 1510 µM
kcat (LcA (BoNT/A light chain) [6]; pH 7.4): 28 s⁻¹ and 28 ± 3.5 s⁻¹
kcat/Km (LcA (BoNT/A light chain) [6]; pH 7.4): 0.019 µM/s
substrate conversion (LcA (BoNT/A light chain) [7]): 60–65%
substrate converted into products (LcA (BoNT/A light chain) [7]): 40%
quality as LcA substrate (Km, kcat, kcat/Km) (LcA (BoNT/A light chain) [8]): poorest of all the three substrates
Km (LcA (BoNT/A light chain) [5]): 1000 µM

SNRTRIDEAN[dnpK]RA[daciaC]RML
Km (LcA (BoNT/A light chain) [5]): 10 µM
kcat (LcA (BoNT/A light chain) [5]): 7 s⁻¹

zinc chloride [ZnCl2]
concentration for optimal LcA activity (LcA (BoNT/A light chain) [1]): 0.1 mM
effect of ZnCl2 on LcA activity, SNAP25 substrate (LcA (BoNT/A light chain) [1]; pH 7.4): slight stimulation of the activity; also recorded: activity remained above the control 100%
behavior of the new LcA preparation on adding BSA, ZnCl2 and DTT (LcA (BoNT/A light chain) [2]): essentially same behavior
effect of adding DTT and ZnCl2 to the 17-mer substrate reactions (LcA (BoNT/A light chain) [2]): results identical to those without them
effect on kinetic constants or specific activity of LcA with the 17-mer substrate (LcA (BoNT/A light chain) [3]): no effect
